Experimental data from PubChem BioAssay (NCI).
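Compound exposure: 48 hours, 5 concentrations, 96-well plates. TGI marks complete inhibition of growth.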

What was measured:
Experiment in all cases: NCI anticancer screen, dose series, 48 h
MCF7 breast = tested on: MCF7 breast
OVCAR-5 ovarian = tested on: OVCAR-5 ovarian
SF-295 CNS = tested on: SF-295 CNS
A549 NSCLC = tested on: A549 NSCLC
HT29 colon = tested on: HT29 colon
EKVX NSCLC = tested on: EKVX NSCLC
SR leukemia = tested on: SR leukemia
SN12C renal = tested on: SN12C renal
SNB-75 CNS = tested on: SNB-75 CNS
NCI-H522 lung = tested on: NCI-H522 lung
HOP-62 NSCLC = tested on: HOP-62 NSCLC
MDA-N = tested on: MDA-N
M14 melanoma = tested on: M14 melanoma
IGROV1 ovarian = tested on: IGROV1 ovarian
A498 renal = tested on: A498 renal
SK-OV-3 ovarian = tested on: SK-OV-3 ovarian
CAKI-1 renal = tested on: CAKI-1 renal
ACHN renal = tested on: ACHN renal

| Structure (SMILES) | TGI (MCF7 breast) [µM] | TGI (OVCAR-5 ovarian) [µM] | TGI (SF-295 CNS) [µM] | TGI (A549 NSCLC) [µM] | TGI (HT29 colon) [µM] | TGI (EKVX NSCLC) [µM] | TGI (SR leukemia) [µM] | TGI (SN12C renal) [µM] | TGI (SNB-75 CNS) [µM] | TGI (NCI-H522 lung) [µM] | TGI (HOP-62 NSCLC) [µM] | TGI (MDA-N) [µM] | TGI (M14 melanoma) [µM] | TGI (IGROV1 ovarian) [µM] | TGI (A498 renal) [µM] | TGI (SK-OV-3 ovarian) [µM] | TGI (CAKI-1 renal) [µM] | TGI (ACHN renal) [µM] |
| --- | --- | --- | --- | --- | --- | --- | --- | --- | --- | --- | --- | --- | --- | --- | --- | --- | --- | --- |
| Cc1c2cccc-2ccc2c1[nH]c1ccc(Br)cc12 | 19.8 | 16.7 | 15.7 | 17.5 | 27.9 | 6.11 | > 100 | 27.2 | 7.89 | 6.29 | 20.1 | 18.8 | 20.9 | 15 | 37.9 | 28.7 | 24.9 | 24.4 |
| CC(C)(C)CC(C)(C)N=C(N)NO | > 100 | > 100 | > 100 | > 100 | > 100 | > 100 | > 100 | > 100 | > 100 | > 100 | > 100 | > 100 | > 100 | > 100 | 97.6 | 99.1 | > 100 | 23.4 |
| COc1ccc(C2CC(c3ccc4ccccc4c3O)=NN2C(C)=O)cc1OC (stereo unspecified) | > 100 | > 100 | > 100 | > 100 | > 100 |  | > 100 | > 100 | > 100 | > 100 | > 100 | > 100 | > 100 | > 100 | > 100 | > 100 | > 100 | > 100 |
| CN(C)CCCNc1ccnc2cc([N+](=O)[O-])ccc12 | 16.7 | 42.4 | 54.9 | 60.6 | 6.99 |  | > 100 | 39.9 | 48.9 | 16.3 | 42.3 | 25.7 | 24.4 | 12.8 | 31.7 | 62.3 | 67.6 | 61.5 |
| COCOCC1CCCN1CN1CCC[C@H]1COCOC (stereo partly specified) | > 100 | > 100 | > 100 | > 100 | > 100 | > 100 | > 100 | > 100 | > 100 | > 100 | > 100 | > 100 | > 100 | > 100 | > 100 | > 100 | > 100 | > 100 |
| O=C(NCCNCCNCCNC(=O)c1cc(-c2ccccc2)nc2ccccc12)c1cc(-c2ccccc2)nc2ccccc12 | 3.79 | 4.94 | 3.09 | 18.6 | 3.14 | 18 | 5.01 | 11.2 | 3.44 | 3.13 | 5.96 | 2.97 | 3.39 | 7.52 | 9.68 | 11.1 | 29.4 | 4.91 |
